Molecular target: T1, UGT8 (Homo sapiens, UniProt Q16880)
T1 construct: host or cells: OE19 cells
T1 sequence (Q16880 21-541): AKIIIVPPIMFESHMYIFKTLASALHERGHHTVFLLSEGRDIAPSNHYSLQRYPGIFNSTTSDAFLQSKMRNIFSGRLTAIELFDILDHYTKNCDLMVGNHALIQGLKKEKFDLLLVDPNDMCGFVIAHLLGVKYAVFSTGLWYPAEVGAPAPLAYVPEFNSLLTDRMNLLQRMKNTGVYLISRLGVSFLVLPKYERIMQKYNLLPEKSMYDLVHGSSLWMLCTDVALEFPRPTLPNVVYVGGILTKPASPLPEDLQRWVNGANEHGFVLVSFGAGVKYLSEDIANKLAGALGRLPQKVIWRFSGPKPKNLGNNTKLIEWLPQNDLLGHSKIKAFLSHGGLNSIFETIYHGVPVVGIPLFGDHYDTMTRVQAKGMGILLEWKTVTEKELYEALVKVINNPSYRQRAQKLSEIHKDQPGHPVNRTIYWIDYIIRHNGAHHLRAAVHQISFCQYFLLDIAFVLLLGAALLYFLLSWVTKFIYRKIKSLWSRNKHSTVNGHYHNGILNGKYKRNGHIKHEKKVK
Assay: In vitro sulfatide (SFT) synthesis inhibition in OE19 cells, LC-MS/MS readout
Assay type: cell-based
Conditions: 72 hr, sulfatide by LC-MS/MS, read-out: Potency range (IC50, In-vitro SFT)
Procedure: For medium throughput screening, library compounds were dispensed into CellBIND 384 well plates to a final concentration of 10 μM. OE19 cells (Sigma) were grown in to 70-90% confluency in RPMI 1640+L-glutamine and […]; were trypsinized to achieve suspension and were aliquoted at 2,500 cells/well, total well volume 50 μl. Plates were incubated 72 hr at 37° C. in 5% CO2; supernatant was removed and plates were dried, heat-sealed and stored at −20° C. until analysis.
For IC50 determinations, the same procedure was followed except that test compounds were added to the plate as dose-downs in triplicate to yield concentration response curves.
Mass Spectrometer Analysis of Sulfatide (SFT):
Assay plates were thawed and 85 μl mobile phase B (5 mM ammonium formate^+0.2% formic acid in 50:50 methanol:acetonitrile). Fifteen μl 20 ng/ml C17 SFT in mobile phase B was added as an internal standard.
SFT was analyzed using an Applied Biosystems API-4000 triple quad mass spectrometer interfaced to a Thermo Scientific Multiplex system (LX-4) equipped with four pumps. Chromatography of OE19 cell samples or 2B5-mouse cells treated with compounds was performed using a Waters Acquity UPLC BEH C8 2.1×50 mm column with 1.7 um particle size. The chromatography was performed using the following mobile phases. Mobile phase A (MPA): 0.2% formic acid and 5 mM ammonium formate in deionized water; MPB: see above. The LC method was run in isocratic mode for 4 sequentially running columns using 95% MPB and 5% MPA with flow rate of 1 ml/min and a column temperature of 60° C.
The Triple quad mass spectrometer was run in Negative Ionization mode monitoring the following MRM transitions and using the following parameters:
Electrospray voltage was […], and source temperature was 550° C.

| SMILES | IC50 |
| --- | --- |
| CNC(=O)c1csc2c(C(F)(F)F)cc(O[C@@H]3CCN(C(=O)OC(C)(C)C)[C@@H](C)C3)nc12 (racemic) [Example 368, (+/−)-tert-Butyl trans-2-methyl-4-((3-(methylcarbamoyl)-7-(trifluoromethyl)thieno[3,2-b]pyridin-5-yl)oxy)piperidine-1-carboxylate] | 100 to 1000 nM |
| CNC(=O)c1csc2c(C(F)(F)F)cc(O[C@@H]3CCN(C(=O)OCCOC(F)(F)F)[C@@H](C)C3)nc12 (racemic) [Example 369, (+/−)-trans-2-(Trifluoromethoxy)ethyl-2-methyl-4-((3-(methylcarbamoyl)-7-(trifluoromethyl)thieno[3,2-b]pyridin-5-yl)oxy)piperidine-1-carboxylate] | < 100 nM |
| CNC(=O)c1csc2c(C(F)(F)F)cc(O[C@@H]3CCN(C(=O)OC(C)(C)C)[C@H](C)C3)nc12 (racemic) [Example 370, (+/−)-tert-Butyl cis-2-methyl-4-((3-(methylcarbamoyl)-7-(trifluoromethyl)thieno[3,2-b]pyridin-5-yl)oxy)piperidine-1-carboxylate] | < 100 nM |
| CNC(=O)c1csc2c(C(F)(F)F)c(C)c(O[C@@H]3CCN(C(=O)OC(C)(C)C)C[C@@H]3F)nc12 (racemic) [Example 387, (+/−)-tert-Butyl cis-3-fluoro-4-((6-methyl-3-(methylcarbamoyl)-7-(trifluoromethyl)thieno[3,2-b]pyridin-5-yl)oxy)piperidine-1-carboxylate] | < 100 nM |
| CNC(=O)c1csc2c(C(F)(F)F)cc(N3CC[C@H](OC(=O)N(C(C)C)C(C)C)[C@@H](F)C3)nc12 (racemic) [Example 488, (+/−)-trans-3-Fluoro-1-(3-(methylcarbamoyl)-7-(trifluoromethyl)thieno[3,2-b]pyridin-5-yl)piperidin-4-yl diisopropylcarbamate] | < 100 nM |
| CNC(=O)c1csc2c(C(F)(F)F)cc(N3CC[C@H](OC(=O)NC(C)C)[C@@H](F)C3)nc12 (racemic) [Example 490, (+/−)-tran-3-Fluoro-1-(3-(methylcarbamoyl)-7-(trifluoromethyl)thieno[3,2-b]pyridin-5-yl)piperidin-4-yl isopropylcarbamate] | < 100 nM |
| CNC(=O)c1csc2c(C(F)(F)F)cc(N3CC[C@H](OC(=O)NC4CC4)[C@@H](F)C3)nc12 (racemic) [Example 492, (+/−)-trans-3-Fluoro-1-(3-(methylcarbamoyl)-7-(trifluoromethyl)thieno[3,2-b]pyridin-5-yl)piperidin-4-yl cyclopropylcarbamate] | < 100 nM |
| CNC(=O)c1csc2c(C(F)(F)F)cc(O[C@@H]3CN(C(=O)OC(C)(C)C)C[C@@H]3F)nc12 (racemic) [Example 609, tert-Butyl (+/−)-cis-3-fluoro-4-((3-(methylcarbamoyl)-7-(trifluoromethyl)thieno[3,2-b]pyridin-5-yl)oxy)pyrrolidine-1-carboxylate] | < 100 nM |
| CNC(=O)c1csc2c(C(F)(F)F)cc(O[C@H]3CN(C(=O)OCC4CC4)C[C@H]3F)nc12 (racemic) [Example 610, Cyclopropylmethyl (+/−)-cis-3-fluoro-4-((3-(methylcarbamoyl)-7-(trifluoromethyl)thieno[3,2-b]pyridin-5-yl)oxy)pyrrolidine-1-carboxylate] | < 100 nM |
| CCNC(=O)CN1CCN(c2cc(C(F)(F)F)c3scc(C(=O)NC)c3n2)CC1 [Example 25, 5-(4-(2-(Ethylamino)-2-oxoethyl)piperazin-1-yl)-N-methyl-7-(trifluoromethyl)thieno[3,2-b]pyridine-3-carboxamide] | 100 to 1000 nM |
| CNC(=O)c1csc2c(C(F)(F)F)c(C)c(N3CCN(CC(=O)NC(C)C)CC3)nc12 [Example 47, 5-(4-(2-(Isopropylamino)-2-oxoethyl)piperazin-1-yl)-N,6-dimethyl-7-(trifluoromethyl)thieno[3,2-b]pyridine-3-carboxamide] | 100 to 1000 nM |
| CNC(=O)c1csc2c(C)cc(N3CCN(CC(=O)NC(C)C)CC3)nc12 [Example 48, 5-(4-(2-(Isopropylamino)-2-oxoethyl)piperazin-1-yl)-N,7-dimethylthieno[3,2-b]pyridine-3-carboxamide] | 100 to 1000 nM |
| CNC(=O)c1csc2c(C(F)(F)F)cc(N3CCN(CC(=O)NC(C)C)C(C)(C)C3)nc12 [Example 49, 5-(4-(2-(Isopropylamino)-2-oxoethyl)-3,3-dimethylpiperazin-1-yl)-N-methyl-7-(trifluoromethyl)thieno[3,2-b]pyridine-3-carboxamide] | < 100 nM |

Now from value to molecule:

| IC50 | SMILES |
| --- | --- |
| 100 to 1000 nM | CNC(=O)c1csc2c(C(F)(F)F)cc(N3CCN(CC(C)OCC4CC4)CC3)nc12 (racemic) [Example 39, (+/−)-5-(4-(2-(Cyclopropylmethoxy)propyl)piperazin-1-yl)-N-methyl-7-(trifluoromethyl)thieno[3,2-b]pyridine-3-carboxamide] |
| < 100 nM | CNC(=O)c1csc2c(C(F)(F)F)cc(O[C@@H]3CCN(C(=O)OCCOC(F)(F)F)[C@H](C)C3)nc12 (racemic) [Example 371, (+/−)-cis-2-(Trifluoromethoxy)ethyl-2-methyl-4-((3-(methylcarbamoyl)-7-(trifluoromethyl)thieno[3,2-b]pyridin-5-yl)oxy)piperidine-1-carboxylate] |
| < 100 nM | CNC(=O)c1csc2c(C(F)(F)F)cc(N3CC[C@H](OC(=O)N[C@@H](C)COC(F)(F)F)[C@@H](F)C3)nc12 (racemic) [Example 418] |
| < 100 nM | CC(C)NC(=O)O[C@H]1CCN(c2cc(C(F)(F)F)c3scc(C(=O)N4CCC4)c3n2)C[C@@H]1F (racemic) [Example 441, (+/−)-trans-1-(3-(Azetidine-1-carbonyl)-7-(trifluoromethyl)thieno[3,2-b]pyridin-5-yl)-3-fluoropiperidin-4-yl isopropylcarbamate] |
| < 100 nM | CNC(=O)c1csc2c(C(F)(F)F)cc(O[C@H]3CN(C(=O)OCCOC(F)(F)F)C[C@H]3F)nc12 (racemic) [Example 611, 2-(Trifluoromethoxy)ethyl (+/−)-cis-3-fluoro-4-((3-(methylcarbamoyl)-7-(trifluoromethyl)thieno[3,2-b]pyridin-5-yl)oxy)pyrrolidine-1-carboxylate] |
| 100 to 1000 nM | CNC(=O)c1csc2c(C(F)(F)F)cc(OC3CC4COCC(C3)N4C(=O)OC(C)(C)C)nc12 (racemic) [Example 628, tert-Butyl (+/−)-endo7-((3-(methylcarbamoyl)-7-(trifluoromethyl)thieno[3,2-b]pyridin-5-yl)oxy)-3-oxa-9-azabicyclo[3.3.1]nonane-9-carboxylate] |
| < 100 nM | CNC(=O)c1csc2c(C(F)(F)F)cc(OC3CC4COCC(C3)N4C(=O)OCCOC(F)(F)F)nc12 (racemic) [Example 629, 2-(Trifluoromethoxy)ethyl (+/−)-endo7-((3-(methylcarbamoyl)-7-(trifluoromethyl)thieno[3,2-b]pyridin-5-yl)oxy)-3-oxa-9-azabicyclo[3.3.]nonane-9-carboxylate] |
| < 100 nM | CNC(=O)c1csc2c(C(F)(F)F)cc(N3CCC(OC(=O)NC(C)CF)CC3)nc12 (racemic) [Example 671, [1-[3-(Methylcarbamoyl)-7-(trifluoromethyl)thieno[3,2-b]pyridin-5-yl]-4-piperidyl] N-(2-fluoro-1-methyl-ethyl)carbamate] |
| < 100 nM | CNC(=O)c1csc2c(C(F)(F)F)cc(O[C@H]3C[C@@H](OC(=O)N[C@@H](C)COC(F)(F)F)C3)nc12 (racemic) [Example 833, (+/−)-cis-(1S,3R)-3-((3-(Methylcarbamoyl)-7-(trifluoromethyl)thieno[3,2-b]pyridin-5-yl)oxy)cyclobutyl ((S)-1-(trifluoromethoxy)propan-2-yl)carbamate] |
| < 100 nM | COC(=O)c1csc2c(C(F)(F)F)cc(N3CCN(CC(=O)NC(C)C)CC3)nc12 [Example 10, Methyl 5-(4-(2-(isopropylamino)-2-oxoethyl)piperazin-1-yl)-7-(trifluoromethyl)thieno[3,2-b]pyridine-3-carboxylate] |
| 100 to 1000 nM | CNC(=O)c1csc2c(C(F)(F)F)cc(N3CCN(C(=O)COC(C)C)CC3)nc12 [Example 44, 5-(4-(2-Isopropoxyacetyl)piperazin-1-yl)-N-methyl-7-(trifluoromethyl)thieno[3,2-b]pyridine-3-carboxamide] |

Reference: US11098056B2, “UDP glycosyltransferase inhibitors and methods of use” (GENZYME CORPORATION, priority 2018, dated 2021)
